From patent publication US7381541B2, “Methods for producing animal feed preparations with astaxanthin-containing plants or parts of plants of the genus Tagetes” (SunGene GmbH & Co. KGaA, priority 2002, dated 2008)

Tested on: trout
Test: Oral administration to trout in a standard trout feed: examination of bioavailability, pigmenting and performance parameters
Assay type: in vivo
Details: 8 weeks
Description: The trout feed comprising the inventive astaxanthin pigments is produced in accordance with Example IV and administered orally to trout (mean live mass 180 g). 3 concentrations are tested: 10, 20 and 40 mg of astaxanthin from the inventive astaxanthin pigmenting per kg of diet.
The trout are raised as described hereinafter: • The trout are given as standard an adaptation phase of 14 days. • During the feeding experiment, 10 trout are kept per pool in constant-flow plastic tanks of volume 80 l of water. The water temperature is 15° C. The water is biologically purified and at least 10% of the total amount of water is replaced by fresh water per day. • The illumination period is 12 hours per day to avoid premature sexual maturation of the animals. • The number of pools per treatment is 3. This is equivalent to 30 trout per dose level. • The diets are stored at −20° C. to avoid astaxanthin losses. The feed is thawed by portions (weekly) and administered. • The experimental period is 8 weeks. […]
The average feed consumption per fish, feed conversion and live mass gain are statistically evaluated.
The pigmenting of the fish is measured by reflectance spectrophotometric measurements (Minolta a value =red value at the fillet incision) and by determining the astaxanthin content (mg/kg) in the fillet in each case compared with the negative control.

SMILES: CC1=C(/C=C/C(C)=C/C=C/C(C)=C/C=C/C=C(C)/C=C/C=C(C)/C=C/C2=C(C)C(=O)[C@@H](O)CC2(C)C)C(C)(C)C[C@H](O)C1=O [synthetic astaxanthin, astaxanthin]
- performance parameters (feed intake, feed utilization, live mass gain): differences between or within treatments: no statistically secured differences
